Results as given in US4959182A, “Method and compositions providing enhanced chemiluminescence from 1,2-dioxetanes” (priority 1989, dated 1990).
Where a name gives a salt, the structure may show the parent alone. Read-outs that look alike come from different tables or passages of the source.

Tests used:
[1] = cited from earlier work
[2] = type: physicochemical; conditions: for half-life: in xylene, read-out: t1/2 at 25° C. (converted); for half-life / k(sec^-1) at 25° C.: 25° C.
Method: Rates for thermal decomposition of the stable dioxetanes were monitored by the decay of chemiluminescence of aerated solutions. A cylindrical Pyrex vial equipped with magnetic stir bar was filled with 3-4 mL of the reaction solvent, sealed with a Teflon-lined screw cap and placed in the thermostatted sample block of the chemiluminescence-measuring luminometer. Temperature control was provided by an external circulating water bath. Appropriate values for the instrument gain and optical slit size were selected. […]. The vial was sealed with a Teflon-lined screw cap to prevent evaporation when high temperatures were used. Measurement of the signal was begun by opening the shutter. The chemiluminescent decay was generally recorded for at least three half-lives. Calculation of the first-order rate constant (k) from the In (Intensity) vs. time data was performed by a computer program utilizing a standard least-squares treatment. The correlation coefficient (r) was typically at least 0.999 and k varied less than 5% between replicate samples.
Activation parameters for decomposition of the dioxetanes were calculated from plots of In k vs. 1/T (Arrhenius eq.) or In k/t vs. 1/T (Eyring eq.) by a standard least-squares linear regression analysis.
Activation Energies for Thermal Decomposition of Dioxetanes

[3] = test system: Alkaline Phosphatase from Human Blood Serum; experiment: Triggering the chemiluminescence of 2c with alkaline phosphatase from human blood serum; type: biochemical
Method: 1. Triggering the Chemiluminescence of 2c with Alkaline Phosphatase from Human Blood Serum. A stock solution of dioxetane 2c was prepared in dioxane/water (1:1 v/v) by photooxygenation of 1c. A sample of fresh blood was drawn from a healthy donor and the red blood cells removed by centrifugation to provide serum for the experiments. Treatment of 3 mL of a 10^-5 M solution of 2c in 0.75 M 2-amino-2-methyl-1-propanol (221) buffer (pH 10.3) at 37° C. with 100 μL of serum led to the typical intensity vs. time profile shown in FIG. 3 where the serum is injected at time zero. Under these conditions the light intensity reaches a constant level of approximately 2.3×10^4 counts/sec. The background luminescence signal from non-enzymatic hydrolysis of 2c is less than 0.05% of the enzyme-generated value. […] The light intensity at any other time point can also be conveniently used to provide a direct measure of the enzyme concentration (FIG. 5). [drawing 31]

[4] = test system: Alkaline Phosphatase from Bovine Intestinal Mucosa; experiment: Triggering the chemiluminescence of 2c with alkaline phosphatase from bovine intestinal mucosa; type: biochemical
Method: (§1) The same procedure as those employed in the measurement of the decay kinetics was used for the determination of chemiluminescence quantum yields with the following modifications. An accurately measured aliquot of a dioxetane stock solution of known concentration was added to 3 mL of the pre-thermostatted organic solvent or aqueous buffer. The reaction was then triggered by adding the appropriate chemical reagent or enzyme. The total light intensity was integrated by a photon-counting luminometer using an RCA A-31034A gallium-arsenide PMT cooled to -78° C.
2. Triggering the Chemiluminescence of 2c with Alkaline Phosphatase from Bovine Intestinal Mucosa. Alkaline phosphatase from bovine intestinal mucosa was obtained from Sigma Chemical Co. as a suspension of 5.1 mg of protein per mL of 3.2 M (NH4)2 SO4 solution. […] 3. Triggering the Chemiluminescence of 2c with Alkaline Phosphatase: Enhanced Chemiluminescence Efficiency via Intermolecular Energy Transfer in Aqueous Micelles. […] Alkaline phosphatase experiments with dioxetane 2c were conducted at 37° C. with 3 mL of a solution containing: 2c (4.3×10^-5 M), 221 buffer (0.75 M, pH 9.1), Mg(OAc)2 (8.0×10^-4 M), CTAB (1.13×10^-3 M), and fluorescein surfactant 3 (5.6×10^-5 M).
To test the sensitivity of this chemiluminescence method for evaluating concentrations of alkaline phosphatase in solution, a series of experiments were carried out using enzyme stock solutions prepared by dilutions of the commercial sample obtained from Sigma. A conservative estimate of the concentration of phosphatase in the sample was made by assuming that the 5.1 mg of protein per mL in the sample was 100% pure alkaline phosphatase. A molecular weight of 140,000 as also used in calculating molar amounts of enzyme. The conditions were the same as described above with 2c, CTAB, and fluorescer 3 except that the final quantities of enzyme in the 3 mL solutions were:
Enzymatic triggering experiments such as those described above were also carried out in Immumlon™ microtitre wells from Dynatech, Inc. made of transparent polystyrene. The wells were used individually and placed in a light-tight holder which could be thermostatted. The chemiluminescence was detected at the bottom of the well using a fiber optic connected to the photon-counting luminometer described previously. This experimental set-up allowed much smaller reaction volumes to be used. For example, a series of experiments using dioxetane 2c, CTAB, and 3 in 200 μL of 221 buffer with amounts of alkaline phosphatase ranging from 5×10^-15 to 2×10^-18 moles (or 2 attomoles) were carried out. […] A more realistic assumption for the purity of the enzyme sample might be 10%.

S-antigen = experiment: Chemiluminescent ELISA for S-antigen with dioxetane 2c and alkaline phosphatase conjugate
Excerpt: 4. Chemiluminescent Enzyme-Linked Assays. Enzymatic triggering of appropriately substituted dioxetanes provides an ultrasensitive detection method for enzyme-linked biological assays. For example, phosphate-substituted dioxetane 2c can be used with enzyme linked immunoassays and DNA probes that utilize alkaline phosphatase as the marker for detection. Previous detection methods make use of substrates which develop a color or become fluorescent upon reaction with this enzyme. The sensitivity of the chemiluminescent technique with dioxetane 2c is illustrated by an enzyme-linked immunosorbant assay (ELISA) for the retinal protein, S-antigen. Using procedures of L. A. Donoso (L. A. Donoso, C. F. Merryman, K. E. Edelberg, R. Naids, and C. Kalsow, Investigative Ophthalmology & Visual Science, 26, 561 (1985)), a series of 7 Immulon™ wells were coated with varying amounts of S-antigen (112, 56, 28, 14, 7, 3, 1.3 ng), reacted with a monoclonal antibody (MAbA9-C6) developed in mouse, and finally reacted with anti-mouse IgG coupled to alkaline phosphatase. A chemiluminescence assay of each well was then conducted individually by adding 100 μL of 221 buffer (0.75 M, pH 9.1) containing Mg(OAc)2 (8.0×10^-4 M), CTAB (1.13×10^-3 M), and fluorescein surfactant 3 (5.6×10^-5 M). […] The reagent background luminescence is very low and constant at 15 - 20 counts/sec (FIG. 13). […] Following the experiments with the luminometer, the wells containing the same solution were subsequently used for a photographic detection experiment (FIG. 15). The 7 wells were placed in a holder and incubated for 30 minutes at 37° C. and then photographed at that temperature with ASA 3000 Polaroid™Type 57 film for 15 min in a light-tight incubator. […] The reproducibility of the photographic assay is illustrated in FIG. 16. Four wells coated with 50 ng of antigen were treated with buffer and dioxetane as above, incubated for 1 hour at 45° C., and then photographed with the film for 30 sec at that temperature.

[5] = Fluoride-triggered chemiluminescence of silyl-protected dioxetane
Excerpt: However, the chemiluminescent decomposition of this dioxetane can be conveniently triggered at room temperature by removal of the silyl-protecting with fluoride ion to generate the unstable, aryloxide form which cleaves to yield intense blue light.

[6] = Base-triggered chemiluminescence of dioxetanes 2a/2b in DMSO, water, CTAB micelles and micelles with fluorescent co-surfactant
Excerpt: The chemiluminescence quantum yield (.PHI.CL) for the decomposition of dioxetanes is defined as the ratio of einsteins of chemiluminescence emitted to moles of dioxetane decomposed. Sufficient energy is released during the reaction from the reaction enthalpy (ΔHR) plus the Arrhenius activation energy (Ea) to populate the singlet excited state of one of the carbonyl cleavage products. Therefore, the maximum quantum yield is 1.0. Another parameter of interest is the chemiexcitation quantum yield (.PHI.CE) which is defined as the ratio of excited states formed to dioxetane decomposed. The chemiexcitation quantum yield is related to the chemiluminescence quantum yield via the fluorescence quantum yield of the dioxetane cleavage (.PHI.F) through the equation: .phi.CL =.phi.CE X .phi.F.
as §1
Spectra of the chemiluminescence from chemically or enzymatcally triggered dioxetanes were obtained by conducting the reaction in a 1-cm square quartz cuvette in the sample compartment of a Spex Fluorolog spectrofluorometer at ambient temperature. Correction for the decay of the chemiluminescence intensity during the wavelength scan was made by accumulating the spectrum in a ratio mode so that the observed spectrum was divided by the signal from an auxiliary detector (EMI 9781B) which measures the total signal as a function of time. The monochromator bandpass was typically 18 nm. For weakly emitting samples, several identical scans were performed and added together to improve the signal-to-noise ratio.
1. Triggering the Chemiluminescence of Hydroxy-Substituted Dioxetane 2a with Base.
2. […] Cationic surfactants such as cetyltrimethylammonium bromide (CTAB) can be used to increase rates for chemical triggering of chemiluminescence from appropriately substituted dioxetanes in aqueous solution. […] The dioxetane is solubilized in the micelles formed by the surfactant and NaOH is added to initiate the chemiluminescence. […] Typically, the experiments were carried out with [2b]=9.1×10^-5 M, [CTAB]=2×10^-3 M, and [OH^- ]=9.1×10^-5 M at 37° C.
Similar experiments were conducted with the benzothiazamide surfactant 4. […] Enzymatic Triggering of Phosphate-Substituted Dioxetane 2c.

[7] = thermal decomposition in xylene
[8] = benzothiazamide surfactant 4 as co-surfactant, similar experiments with 2b/CTAB/base
[9] = base, CTAB 1.5×10^-3 M with fluorescein surfactant 3 (9×10^-5 M), 37° C.

With `COC1(c2cccc(O)c2)OOC12C1CC3CC(C1)CC2C3` (centres unmarked) [aryloxide-substituted dioxetane] the half-life (aryloxide form, 25° C.) was 5 s.
For `Oc1ccc(C23OCCOC2(c2ccccc2)OO3)cc1` (centres unmarked) [deprotonated dioxetane (X=O^-)], the “decomposition rate relative to protonated form (X=OH)” value ([1]; 25° C.) is listed as 5.7×10^6 times.
In the case of `COC1(c2cccc(OP(=O)(O)O)c2)OOC12C1CC3CC(C1)CC2C3` (centres unmarked) [2c, 4-Methoxy-4-(3-phosphatephenyl)spiro[1,2-dioxetane-3,2'-adamantane], disodium salt], the Ea ([2]; Arrhenius plot, o-xylene, 80° to 120° C.) is reported as 32.5 kcal/mol, the half-life [2] is reported as 6940 days and the Ea [2, 7] is reported as 32.5. For the same compound, the “Log A” value [2, 7] was 14.9, the “k(sec^-1) at 25° C.” value [2, 7] was 1.19e-09 s⁻¹ and the “light intensity (constant level)” value ([3]; 10^-5 M 2c, 100 μL serum, 221 buffer pH 10.3, 37° C.) was “approximately 2.3×10^4 counts/sec”. For the same compound, the “light intensity at the plateau vs enzyme concentration” value ([3]; 100 to 1 μL of serum) was “directly proportional to the enzyme concentration”, the “background luminescence signal from non-enzymatic hydrolysis, of enzyme-generated value” ([3]; 221 buffer pH 10.3, 37° C.) was “less than 0.05%” and the period of chemiluminescence ([4]; 12 pg/mL protein, CTAB and 3, 37° C.) was 45 min. The “detection of alkaline phosphatase” value ([4]; 200 μL 221 buffer, CTAB and 3, enzyme purity of 10% assumed) was “less than 0.2 attomoles”, the chemiluminescence quantum yield ([4]; 221 buffer pH 9.1, 37° C., no CTAB) was 3.1×10^-5 and the “period over which light intensity increases” value ([4]; CTAB and fluorescer, depending on enzyme concentration) was 30 to 60 min. For the same compound, the “background signal from non-enzymatic hydrolysis” value ([4]; buffer/co-micelle environment) was “only a few”, the “chemiluminescence quantum yield (.PHI.Cl)” value ([4]; with CTAB (1.13×10^-3 M)) was 2.1×10^-4 and the “increase compared to the enzymatic reaction in the absence of CTAB and 3” value ([4]; with CTAB and fluorescein surfactant 3) was 500 fold. The “chemiluminescence quantum yield (.PHI.Cl)” value ([4]; with CTAB and fluorescein surfactant 3 (5.6×10^-5 M), pH 9.1, 37° C.) was 0.015, the chemiluminescence efficiency ([4]; with CTAB and fluorescein surfactant 3, pH 9.1, 37° C.) was 1.5% and the “integrated light intensity vs amount of antigen” value (S-antigen; 1.3 to 112 ng S-antigen) was “correlates with the amount of antigen coated on the well”. For the same compound, the reagent background luminescence (S-antigen; 2c 1.36×10^-4 M, CTAB and 3, pH 9.1, 37° C.) was 15 - 20 counts/sec and the “photographic detection, control well with buffer and dioxetane only” value (S-antigen; ASA 3000 Polaroid film) was “not visible”.
With `COC1(c2cccc(O[Si](C)(C)C(C)(C)C)c2)OOC12C1CC3CC(C1)CC2C3` (centres unmarked) the chemiluminescence efficiency [5] was 25%, the chemiluminescence quantum yield [5] was 0.25 and the “efficiency for the formation of the singlet excited ester” value ([5]; corrected for fluorescence quantum yield of the ester) was 57%. The “maximum of the chemiluminescence spectrum” value ([5]; fluoride, DMSO) was 470 nm, the “decomposition on the laboratory bench” value (in o-xylene, several months) was “no detectable decomposition” and the activation energy (thermal decomposition) was 28.4 kcal/mol.
With `CCCCCCCCCCCCCCCCNC(=O)c1nc2ccc(O)cc2s1` [compound 4, 1-Hexadecyl-6-hydroxy-2-benzothiazamide] the chemiluminescence efficiency [6, 8] was 0.3% and the λmax [6, 8] was 506 nm.
In the case of `Oc1ccc(C23OCCOC2(c2ccccc2)OO3)cc1` (centres unmarked) [hydroxy-substituted dioxetane (X=OH)], the “half-life for decomposition at room temperature” value ([1]; 25° C.) is listed as 2.38 days, the luminescence with base ([1]; base at -30° C.) is listed as “a flash of blue light” and the luminescence upon heating ([1]; elevated temperatures) is listed as “very low levels of luminescence”.
In the case of `COC1(c2cccc(OC(C)=O)c2)OOC12C1CC3CC(C1)CC2C3` (centres unmarked) [2b, 4-(3-Acetoxyphenyl)-4-methoxyspiro[1,2-dioxetane-3,2'-adamantane]], the half-life [2] is reported as 4750 days, the Ea [2, 7] is reported as 30.4 and the “Log A” value [2, 7] is reported as 13.6. The “k(sec^-1) at 25° C.” value [2, 7] was 1.73e-09 s⁻¹, the “increase in the chemiluminescence quantum yield” value ([6]; CTAB above cmc vs water, 37° C.) was 19 fold and the “chemiluminescence quantum yield (.PHI.CL)” value ([6]; base in DMSO) was 0.25. For the same compound, the “light yield (chemiluminescence quantum yield)” value ([6]; base in water) was 8.9×10^-6, the chemiluminescence efficiency [6, 9] was 1.4% and the “chemiluminescence quantum yield (.PHI.CL)” value [6, 9] was 0.014. The “chemiluminescence quantum yield (.PHI.Cl)” value ([6]; base, CTAB above critical micelle concentration, 37° C.) was 1.7×10^-4 and the “increase over the luminescence in the absence of CTAB and 3” value ([6]; base, CTAB with fluorescein surfactant 3, 37° C.) was 500 fold.
